Reference: US11986489B2, “Method of treating a disease using a glycolytic dependent compound” (Ethicon, Inc., priority 2015, dated 2024)
Structures can show the parent of a compound that is named as a salt. Where two headings read alike, the source gives them in different places.

What was measured:
[1] = human, in vivo
Text: Clinically, a half-life of a given compound is the amount of time required for the compound to fall e.g. in the circulation to half its initial administered dose i.e. how long it takes for the body to remove half of the administered dose. Typically, compounds are active for a multiple of their half-life, for example, five times the half-life can be used to describe the time period for a therapy's treatment. In the case of many therapies, this translates into days where the drug is having an effect on targeted tissues. All clinically used and approved drugs will have well described time ranges and amounts for calculating dose and therapy plans. In one embodiment, the performance of the compound in addressing the underlying pathology e.g. malignancy is adjusted in view of the presence of ORC, and/or OC that can localize the therapy at the target site during the limited time the compound is in the body and before it is being processed.
In certain embodiments a “therapeutically effective dose” refers to the median effective dose ED50, for a particular know drug. […] Mean: 1-3 hours. Typically, 5 times the elimination half-life will give the time at which point the drug has been completely eliminated from the body. For Doxorubicin this would be 5-15 hours.

[2] = in vivo; cited from earlier work
[3] = WST-1 viability of NHDF cells treated with Dox with or without ORC; assay type: cell-based, Human; settings: human, NHDF cells (normal human dermal fibroblasts), NHDF cells, 16-18 hours, WST-1; for cytotoxicity at 5 μM: Dox 5 μM; for cytotoxicity at 25 μM: Dox 25 μM; for cytotoxicity at 50 μM: Dox 50 μM
Procedure: (§1) NU-KNIT® (ORC) patch: NU-KNIT® was cut with an 8 mm punch to form 8 mm circles of Nuknit. These circles were then cut into 4 quarters using sterile scissors (each quarter has a weight of 2.2-2.7 mg, Average 2.44 mg, n=10).
(§2) Day 1: Two 24-well plates were seeded with 15,000 NHDF cells/well using a 15,000 cells/ml suspension according to the plate layout below (representing about 20%-30% confluency of cells).
(§3) The plates were incubated overnight, for 16-18 hours, in a water jacketed 37° C. incubator with 5% CO2.
(§4) The cells at this stage were about 40%-50% confluent.
(§5) Immediately, a NuKnit® ¼ punch was added to the wells according to the plate layout.
(§6) Day 3: The untreated cells at this stage were about 60%-70% confluent. The plate's medium was decanted and replaced with 0.5 ml of Growth medium. 50 μl of WST-1 were added to each well. The plates were then incubated for an additional 4 hours.
(§7) The plates were then read with an ELISA reader at 450 nm and 650 nm Optical Density (OD). Wells containing medium with no cells were used as blank.
(§8) The results obtained by ELISA reader at 650 nm were subtracted from the results obtained at 450 nm per each well separately=sample OD.
(§9) The relative viability of the rest of the wells was calculated according to the following calculation: sample OD/untreated OD×100. The results were depicted in FIG. 2.
(§10) The following experiment was set in order to evaluate the effect of ORC on Doxorubicin activity on Normal Human Dermal Fibroblast (NHDF) cells. Doxorubicin activity will be expressed in relative cell viability compared to untreated cells. […] The final viability of the cells was evaluated with WST-1 staining. WST-1 is a Tetrazolium salts that is only cleaved to Formazan in metabolically active intact cells.

[4] = tested on: Normal Human Dermal Fibroblast (NHDF) cells; assay: as above; assay type: cell-based; settings: for Potency increase of Dox in the presence of ORC: with ORC divided by without ORC
Procedure: as §1, §2, §3, §4, §5, §6, §7, §8, §9, §10

[5] = with ORC (¼ Nuknit of 8 mm), read-out: With ORC relative reduction of viability (%)
[6] = without ORC, read-out: Without ORC relative reduction of viability (%)

For COc1cccc2c1C(=O)c1c(O)c3c(c(O)c1C2=O)C[C@@](O)(C(=O)CO)C[C@@H]3O[C@H]1C[C@H](N)[C@H](O)[C@H](C)O1 [Dox, Doxorubicin hydrochloride], the “time at which the drug has been completely eliminated from the body” value [1] is given as 5 to 15 h, the “biological half-life, mean” value [2] is given as 1-3 hours and the “biological half-life, triphasic, third phase” value [2] is given as 30 hours. It also gave a cytotoxicity at 5 μM [3, 5] of ~55%, a cytotoxicity at 5 μM [3, 6] of ~30% and a cytotoxicity at 25 μM [3, 5] of ~74%. The cytotoxicity at 25 μM [3, 6] was ~40%, the cytotoxicity at 50 μM [3, 5] was 80% and the cytotoxicity at 50 μM [3, 6] was 65%. The “Potency increase of Dox in the presence of ORC” value (“Potency increase of Dox” for short) ([4]; Dox 5 μM) was 1.89, the “Potency increase of Dox” value ([4]; Dox 25 μM) was 1.83 and the “Potency increase of Dox” value ([4]; Dox 50 μM) was 1.24. For the same compound, the “Dox concentration at which the viability reduction is already evident” value ([4]; NHDF cells, in the absence of ORC) was 5.0 µM and the “Effect of Dox on the viability of NHDF cells” value ([4]; in the absence of ORC) was “reduces the viability of NHDF cells, in the absence of ORC in a dose dependent manner”.
For CO[C@H]1C[C@@H]2CC[C@@H](C)[C@@](O)(O2)C(=O)C(=O)N2CCCC[C@H]2C(=O)O[C@H]([C@H](C)C[C@@H]2CC[C@@H](OCCO)[C@H](OC)C2)CC(=O)[C@H](C)/C=C(\C)[C@@H](O)[C@@H](OC)C(=O)[C@H](C)C[C@H](C)/C=C/C=C/C=C/1C [Everolimus], the half-life [2] is listed as “about 30 hours”.
In the case of Cc1ccc(Nc2nccc(N(C)c3ccc4c(C)n(C)nc4c3)n2)cc1S(N)(=O)=O [Pazopanib], the half-life [2] is listed as “about 31 hours”.
In the case of CNC(=O)c1cc(Oc2ccc(NC(=O)Nc3ccc(Cl)c(C(F)(F)F)c3)cc2)ccn1 [Sorafenib], the half-life [2] is listed as 20 to 27 h.
In the case of CCN(CC)CCNC(=O)c1c(C)[nH]c(/C=C2\C(=O)Nc3ccc(F)cc32)c1C [Sunitinib], the half-life [2] is listed as 41 to 86 h.
In the case of CO[C@H]1C[C@@H]2CC[C@@H](C)[C@@](O)(O2)C(=O)C(=O)N2CCCC[C@H]2C(=O)O[C@H]([C@H](C)C[C@@H]2CC[C@@H](OC(=O)C(C)(CO)CO)[C@H](OC)C2)CC(=O)[C@H](C)/C=C(\C)[C@@H](O)[C@@H](OC)C(=O)[C@H](C)C[C@H](C)/C=C/C=C/C=C/1C [Temsirolimus], the half-life [2] is listed as “about 17.3 hours”.
